For orientation: EC50 means the concentration at which the effect is half-maximal.

15 compounds from patent US20080221161A1, “HETEROCYCLIC MODULATORS OF TGR5 FOR TREATMENT OF DISEASE” (KALYPSYS, INC., priority 2007, published 2008) can be followed below.

Where only a bound is given, the exact number is not on record here.

The target of the test is T1, human TGR5 (Homo sapiens, UniProt Q8TDU6).
T1 construct: expressed in transfected cells; host or cells: HEK-293 cells, stably transfected (pcDNA 3.1, Fugene6, geneticin selection)
T1 sequence (Q8TDU6 1-330): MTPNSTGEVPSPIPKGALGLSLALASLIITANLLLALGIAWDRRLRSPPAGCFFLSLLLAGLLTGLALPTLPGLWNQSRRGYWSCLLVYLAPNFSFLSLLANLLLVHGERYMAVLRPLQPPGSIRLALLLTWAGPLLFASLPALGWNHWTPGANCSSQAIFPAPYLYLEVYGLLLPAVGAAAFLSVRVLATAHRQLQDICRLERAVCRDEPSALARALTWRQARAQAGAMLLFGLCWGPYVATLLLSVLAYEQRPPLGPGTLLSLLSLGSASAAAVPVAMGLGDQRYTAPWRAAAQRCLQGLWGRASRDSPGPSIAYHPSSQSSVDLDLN
Kind of test: cAMP production assay in HEK293-TGR5 cells. In kind it is cell-based. Conditions: HEK293 cells stably expressing human TGR5; 30 minutes stimulation; LANCE cAMP TR-FRET; read-out: cAMP Production in 293-TGR5 Cells EC50. The procedure:
HEK293 cells stably expressing TGR5 (HEK293-TGR5) were established by stably transfecting HEK-293 cells with an expression vector (pcDNA 3.1, Invetrogen) inserted with human TGR5 cDNA using Fugene6 (Roche, Indianapolis, Ind.) according to conventional methods. Cells were grown in DMEM (invitrogen, Carlsbad, Calif.) supplemented with 10% FBS, 1% penicillin/streptomycin under geneticin selection. The presence of TGR5 transcripts in these cells was confirmed using branched DNA (bDNA, Genospectra, Inc., Fremont Calif.) following the manufacturer's protocol and using specific probes for human TGR5. cAMP production assay was performed in high throughput 1536 well format using LANCE cAMP detection kit (Perkin Elmer Inc., Boston, Mass.) according to the manufacturer's protocol. Briefly, HEK293-TGR5 cells were harvested using non-enzymatic cell dissociation buffer (Invitrogen, Carlsbad, Calif.) and suspended in DMEM supplemented with 0.1% FBS at a density of 800,000 cells/ml. Alexa antibody was added to the cell suspension, and 4 ul of the mixture was dispensed in white opaque tissue culture treated Greiner 1536 well plates (USA Scientific, Inc., Ocala, Fla.). After an overnight incubation at 37C in an atmosphere of 10% CO2 and 95% humidity, 1 ul of 5 mM IBMX (Sigma, St. Louis, Mo.) solution in DMEM was dispensed for a final concentration of 1 mM. Cells were then stimulated with test compounds for 30 minutes, after which time 5 ul of detection reagent was added and incubated for 1-7 hrs at room temperature. TR-FRET signal was detected using the Viewlux (Perkin Elmer Inc., Boston Mass.). EC50 values were determined using Graph Pad Prizm analysis (GraphPad Software, Inc).

Regarding `COc1ccc2cc(CNC3CCc4ccccc43)c(-c3ccncc3)nc2c1` (racemic) [Example 86, (±)-N-((7-Methoxy-2-(pyridin-4-yl)quinolin-3-yl)methyl)-2,3-dihydro-1H-inden-1-amine], the EC50 is less than 10 µM.

Regarding `COc1ccc2cc(C(C)NCCc3ccc(Br)cc3)c(-c3ccsc3)nc2c1` (racemic) [Example 143, (±)-N-(4-Bromophenethyl)-1-(7-methoxy-2-(thiophen-3-yl)quinolin-3-yl)ethanamine], the EC50 was greater than 10 µM.

With `CC(NCCc1ccc(Br)cc1)c1cc2ccc(O)cc2nc1-c1ccsc1` (racemic) [Example 144, (±)-3-(1-(4-Bromophenethylamino)ethyl)-2-(thiophen-3-yl)quinolin-7-ol], the EC50 is greater than 10 µM.

In the case of `COc1ccc2cc(CNCc3ccc(C(F)(F)F)cc3)c(-c3ccsc3)nc2c1` [Example 1, 1-(7-methoxy-2-(thiophen-3-yl)quinolin-3-yl)-N-(4-(trifluoromethyl)benzyl)methanamine], the EC50 was greater than 10 µM.

As for `COc1ccc2cc(CNCc3cccc(C(F)(F)F)c3)c(-c3ccsc3)nc2c1` [Example 3, 1-(7-Methoxy-2-(thiophen-3-yl)quinolin-3-yl)-N-(3-(trifluoromethyl)benzyl)methanamine], the EC50 was less than 10 µM.

For `Cc1cccc2cc(CNCCc3ccc(Cl)cc3)c(-c3ccsc3)nc12` [Example 4, 2-(4-Chlorophenyl)-N-((8-methyl-2-(thiophen-3-yl)quinolin-3-yl)methyl)ethanamine], the concentration for a half-maximal effect (EC50) was greater than 10 µM.

`Cc1cccc2cc(CNCc3ccc(C(F)(F)F)cc3)c(-c3ccsc3)nc12` [Example 5, 1-(8-Methyl-2-(thiophen-3-yl)quinolin-3-yl)-N-(4-(trifluoromethyl)benzyl)methanamine]: the EC50 is less than 10 µM.

As to `COc1ccc2cc(CNCc3ccc(C(F)(F)F)cc3)c(-c3cccnc3)nc2c1` [Example 6, 1-(7-Methoxy-2-(pyridin-3-yl)quinolin-3-yl)-N-(4-(trifluoromethyl)benzyl)methanamine], the EC50 was less than 10 µM.

For the compound `COc1ccc2cc(CNCCc3ccc(Cl)cc3)c(-c3cccnc3)nc2c1` [Example 7, 2-(4-Chlorophenyl)-N-((7-methoxy-2-(pyridin-3-yl)quinolin-3-yl)methyl)ethanamine], the EC50 is less than 10 µM.

For `COc1ccc2cc(CNCCc3ccc(F)cc3)c(-c3cccnc3)nc2c1` [Example 8, 2-(4-Fluorophenyl)-N-((7-methoxy-2-(pyridin-3-yl)quinolin-3-yl)methyl)ethanamine], the EC50 was less than 10 µM.

With `COc1ccc2cc(CNCc3ccc(OC(F)(F)F)cc3)c(-c3cccnc3)nc2c1` [Example 10, 1-(7-Methoxy-2-(pyridin-3-yl)quinolin-3-yl)-N-(4-(trifluoromethoxy)benzyl)methanamine], the 50% effective concentration (EC50) is greater than 10 µM.

Consider `COc1ccc2cc(CNCc3ccc(N(C)C)cc3)c(-c3cccnc3)nc2c1` [Example 11, 4-(((7-Methoxy-2-(pyridin-3-yl)quinolin-3-yl)methylamino)methyl)-N,N-dimethylaniline], for which the EC50 was less than 10 µM.

In the case of `FC(F)(F)Oc1ccc2cc(CNCc3ccc(C(F)(F)F)cc3)c(-c3ccsc3)nc2c1` [Example 12, 1-(2-(Thiophen-3-yl)-7-(trifluoromethoxy)quinolin-3-yl)-N-(4-(trifluoromethyl)benzyl)methanamine], the EC50 was less than 10 µM.

Regarding `FC(F)(F)Oc1ccc2cc(CNCCc3ccc(Cl)cc3)c(-c3ccsc3)nc2c1` [Example 13, 2-(4-Chlorophenyl)-N-((2-(thiophen-3-yl)-7-(trifluoromethoxy)quinolin-3-yl)methyl)ethanamine], the EC50 is greater than 10 µM.

Take `FC(F)(F)Oc1ccc2cc(CNCCc3ccc(Cl)cc3)c(-c3cccnc3)nc2c1` [Example 14, 2-(4-Chlorophenyl)-N-((2-(pyridin-3-yl)-7-(trifluoromethoxy)quinolin-3-yl)methyl)ethanamine]: the EC50 was greater than 10 µM.
